Experiments:
Format in all cases: cell-based
human TLR9 = target: T1, human TLR9 (Homo sapiens, UniProt Q9NR96); test: TLR9 inhibition reporter assay (HEK-Blue SEAP reporter, ODN2006 stimulation); conditions: HEK-Blue cells overexpressing human TLR9, SEAP reporter, ODN2006 5 nM, 22 hour incubation
T1 construct: host or cells: HEK-Blue cells
T1 sequence (Q9NR96 26-1032): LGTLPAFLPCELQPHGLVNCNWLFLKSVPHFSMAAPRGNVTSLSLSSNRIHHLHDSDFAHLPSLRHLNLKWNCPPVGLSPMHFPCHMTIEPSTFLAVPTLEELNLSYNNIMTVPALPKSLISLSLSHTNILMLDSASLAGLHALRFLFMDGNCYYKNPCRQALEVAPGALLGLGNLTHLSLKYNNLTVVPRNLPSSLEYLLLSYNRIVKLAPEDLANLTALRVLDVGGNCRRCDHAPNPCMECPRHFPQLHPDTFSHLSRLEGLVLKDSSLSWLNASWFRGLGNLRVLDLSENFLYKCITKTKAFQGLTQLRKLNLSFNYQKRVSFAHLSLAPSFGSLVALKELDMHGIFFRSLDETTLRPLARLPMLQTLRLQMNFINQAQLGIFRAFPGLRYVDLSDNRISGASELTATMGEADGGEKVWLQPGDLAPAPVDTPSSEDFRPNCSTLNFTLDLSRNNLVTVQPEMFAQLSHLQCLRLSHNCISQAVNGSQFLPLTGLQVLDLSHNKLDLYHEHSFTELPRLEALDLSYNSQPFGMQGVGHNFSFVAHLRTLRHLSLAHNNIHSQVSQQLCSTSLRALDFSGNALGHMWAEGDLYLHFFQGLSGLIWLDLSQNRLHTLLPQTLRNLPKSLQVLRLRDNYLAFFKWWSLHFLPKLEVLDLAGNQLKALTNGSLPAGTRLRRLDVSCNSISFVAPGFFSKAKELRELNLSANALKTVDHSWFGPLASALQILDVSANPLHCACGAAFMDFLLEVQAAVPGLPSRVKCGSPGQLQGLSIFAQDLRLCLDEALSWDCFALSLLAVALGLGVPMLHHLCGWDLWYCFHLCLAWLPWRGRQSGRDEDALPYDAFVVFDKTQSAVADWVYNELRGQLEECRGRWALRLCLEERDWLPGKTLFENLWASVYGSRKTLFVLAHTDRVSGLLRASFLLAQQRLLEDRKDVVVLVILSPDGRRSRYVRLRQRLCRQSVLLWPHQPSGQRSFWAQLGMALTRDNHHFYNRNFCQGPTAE
Outline: (§1)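 Agonists used: gardiquimod 7.5 μM (TLR7), R848 15.9 μM (TLR8), ODN2006 5 nM (TLR9), added after 30 min room-temperature compound pre-treatment (0.05 nM–50 μM) of receptor-overexpressing HEK-Blue cells. SEAP reporter (NF-κB/AP-1 driven) read after 22 h at 37 °C; inhibition scaled between agonist+DMSO and reference-inhibitor wells.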

human TLR8 = target: T2, human TLR8 (Homo sapiens, UniProt Q9NR97); test: TLR8 inhibition reporter assay (HEK-Blue SEAP reporter, R848 stimulation); conditions: HEK-Blue cells overexpressing human TLR8, SEAP reporter, R848 15.9 μM, 22 hour incubation
T2 construct: host or cells: HEK-Blue cells
T2 sequence (Q9NR97 27-1041): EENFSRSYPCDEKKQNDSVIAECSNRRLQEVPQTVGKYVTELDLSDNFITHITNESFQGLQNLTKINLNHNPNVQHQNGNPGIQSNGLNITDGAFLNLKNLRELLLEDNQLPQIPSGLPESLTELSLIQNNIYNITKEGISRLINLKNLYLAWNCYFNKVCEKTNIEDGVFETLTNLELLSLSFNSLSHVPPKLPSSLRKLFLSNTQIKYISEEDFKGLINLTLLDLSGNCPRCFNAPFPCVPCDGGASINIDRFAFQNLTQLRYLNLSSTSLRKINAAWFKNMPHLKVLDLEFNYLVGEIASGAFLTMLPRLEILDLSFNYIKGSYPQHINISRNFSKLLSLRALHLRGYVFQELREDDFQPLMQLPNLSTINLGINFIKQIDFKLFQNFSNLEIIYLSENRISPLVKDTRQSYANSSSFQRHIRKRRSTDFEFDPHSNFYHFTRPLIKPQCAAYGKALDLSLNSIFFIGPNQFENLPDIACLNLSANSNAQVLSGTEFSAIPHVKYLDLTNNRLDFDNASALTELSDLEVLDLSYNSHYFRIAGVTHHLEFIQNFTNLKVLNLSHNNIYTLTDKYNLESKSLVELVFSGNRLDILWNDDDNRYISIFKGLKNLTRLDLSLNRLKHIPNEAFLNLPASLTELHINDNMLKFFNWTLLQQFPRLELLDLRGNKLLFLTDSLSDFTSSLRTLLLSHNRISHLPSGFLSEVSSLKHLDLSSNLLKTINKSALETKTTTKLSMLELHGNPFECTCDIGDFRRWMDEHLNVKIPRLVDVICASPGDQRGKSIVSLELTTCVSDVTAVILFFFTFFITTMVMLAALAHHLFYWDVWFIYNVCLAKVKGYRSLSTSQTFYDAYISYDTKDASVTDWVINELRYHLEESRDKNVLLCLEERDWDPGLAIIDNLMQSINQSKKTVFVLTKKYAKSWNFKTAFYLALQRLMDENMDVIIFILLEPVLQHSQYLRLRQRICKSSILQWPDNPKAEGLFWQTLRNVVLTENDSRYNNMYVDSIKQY
Outline: as §1

human TLR7 = target: T3, human TLR7 (Homo sapiens, UniProt Q9NYK1); test: TLR7 inhibition reporter assay (HEK-Blue SEAP reporter, gardiquimod stimulation); conditions: HEK-Blue cells overexpressing human TLR7, SEAP reporter, gardiquimod 7.5 μM, 22 hour incubation
T3 construct: host or cells: HEK-Blue cells
T3 sequence (Q9NYK1 27-1049): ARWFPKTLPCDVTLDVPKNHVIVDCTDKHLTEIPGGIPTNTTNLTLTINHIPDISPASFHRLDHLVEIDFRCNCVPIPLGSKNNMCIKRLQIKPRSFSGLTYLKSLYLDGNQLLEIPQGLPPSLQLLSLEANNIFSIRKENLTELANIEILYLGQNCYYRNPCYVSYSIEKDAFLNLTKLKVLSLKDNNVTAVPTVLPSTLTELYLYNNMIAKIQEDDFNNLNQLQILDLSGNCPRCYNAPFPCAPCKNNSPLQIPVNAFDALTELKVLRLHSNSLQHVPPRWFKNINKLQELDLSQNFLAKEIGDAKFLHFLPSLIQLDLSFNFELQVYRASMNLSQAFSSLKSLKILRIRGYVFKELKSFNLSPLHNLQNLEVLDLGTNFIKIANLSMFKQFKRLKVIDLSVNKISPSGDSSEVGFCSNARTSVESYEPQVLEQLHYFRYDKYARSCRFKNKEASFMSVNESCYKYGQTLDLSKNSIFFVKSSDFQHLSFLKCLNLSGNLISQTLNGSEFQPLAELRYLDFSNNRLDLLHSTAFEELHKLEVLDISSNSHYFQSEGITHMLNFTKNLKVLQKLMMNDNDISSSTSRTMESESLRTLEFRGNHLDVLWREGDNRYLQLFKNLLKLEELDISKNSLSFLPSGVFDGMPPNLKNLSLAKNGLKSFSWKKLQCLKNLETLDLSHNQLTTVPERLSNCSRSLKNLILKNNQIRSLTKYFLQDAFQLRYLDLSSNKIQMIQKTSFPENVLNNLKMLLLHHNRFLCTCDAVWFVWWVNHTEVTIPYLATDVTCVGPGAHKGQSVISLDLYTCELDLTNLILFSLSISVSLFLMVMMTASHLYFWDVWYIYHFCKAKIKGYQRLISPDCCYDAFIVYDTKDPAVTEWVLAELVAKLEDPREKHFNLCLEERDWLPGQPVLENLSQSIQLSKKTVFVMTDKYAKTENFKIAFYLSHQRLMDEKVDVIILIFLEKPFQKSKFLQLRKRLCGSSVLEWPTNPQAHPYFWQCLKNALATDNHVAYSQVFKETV
Outline: as §1

SMILES	IC50 (human TLR9)	IC50 (human TLR8)	IC50 (human TLR7)
CC(C)c1c(-c2cc(-c3cncnc3)c(=O)n(C)c2)[nH]c2ccc(C3CCN(C(C)C)CC3)cc12 [Example 244, 5-(3-isopropyl-5-(1-isopropylpiperidin-4-yl)-1H-indol-2-yl)-1-methyl-3-(pyrimidin-5-yl)pyridin-2(1H)-one]	954 nM	1.8 nM	6 nM
CCCN1CCC(c2ccc3[nH]c(-c4cc(-c5cccnc5)c(=O)n(C)c4)c(C(C)C)c3c2)CC1 [Example 245, 5-(3-isopropyl-5-(1-propylpiperidin-4-yl)-1H-indol-2-yl)-1-methyl-[3,3′-bipyridin]-2(1H)-one]	851 nM	2 nM	7.3 nM
CC(C)c1c(-c2cc(-c3cncnc3)c(=O)n(C)c2)[nH]c2ccc(C3CCN(C)CC3)cc12 [Example 246, 5-(3-isopropyl-5-(1-methylpiperidin-4-yl)-1H-indol-2-yl)-1-methyl-3-(pyrimidin-5-yl)pyridin-2(1H)-one]	387 nM	1.7 nM	2.9 nM
CC(C)c1c(-c2cc(-c3cccnc3)c(=O)n(C)c2)[nH]c2ccc(C3CCN(C)CC3)cc12 [Example 247, 5-(3-isopropyl-5-(1-methylpiperidin-4-yl)-1H-indol-2-yl)-1-methyl-[3,3′-bipyridin]-2(1H)-one]	864 nM	4.1 nM	3 nM
Cc1c(-c2[nH]c3ccc(C4CCN(C5COC5)CC4)cc3c2C(C)C)cn(C)c(=O)c1Cl [Example 248, 3-chloro-5-(3-isopropyl-5-(1-(oxetan-3-yl)piperidin-4-yl)-1H-indol-2-yl)-1,4-dimethylpyridin-2(1H)-one]	30000 nM	16.9 nM	5.6 nM
Cc1c(-c2[nH]c3ccc(C4CCN(CC5CCCO5)CC4)cc3c2C(C)C)cn(C)c(=O)c1Cl (stereo not drawn) [Example 250, 3-chloro-5-(3-isopropyl-5-(1-((tetrahydrofuran-2-yl)methyl)piperidin-4-yl)-1H-indol-2-yl)-1,4-dimethylpyridin-2(1H)-one]	3010 nM	4.8 nM	6.3 nM
CCCCN1CCC(c2ccc3[nH]c(-c4cn(C)c(=O)c(Cl)c4C)c(C(C)C)c3c2)CC1 [Example 251, 5-(5-(1-butylpiperidin-4-yl)-3-isopropyl-1H-indol-2-yl)-3-chloro-1,4-dimethylpyridin-2(1H)-one]	3530 nM	8.1 nM	3.5 nM
Cc1c(-c2[nH]c3ccc(C4CCN(CC5CCOC5)CC4)cc3c2C(C)C)cn(C)c(=O)c1Cl (stereo not drawn) [Example 252, 3-chloro-5-(3-isopropyl-5-(1-((tetrahydrofuran-3-yl)methyl)piperidin-4-yl)-1H-indol-2-yl)-1,4-dimethylpyridin-2(1H)-one]	2660 nM	2.7 nM	4.2 nM
Cc1c(-c2[nH]c3ccc(C4CCN(CC(O)CO)CC4)cc3c2C(C)C)cn(C)c(=O)c1Cl (stereo not drawn) [Example 253, 3-chloro-5-(5-(1-(2,3-dihydroxypropyl)piperidin-4-yl)-3-isopropyl-1H-indol-2-yl)-1,4-dimethylpyridin-2(1H)-one]	1240 nM	5.2 nM	6.1 nM
Cc1c(-c2[nH]c3ccc(C4CCN(CC5CCOC5)CC4)cc3c2C(C)C)cn(C)c(=O)c1Cl (stereo not drawn) [Example 254, 3-chloro-5-(3-isopropyl-5-(1-((tetrahydrofuran-3-yl)methyl)piperidin-4-yl)-1H-indol-2-yl)-1,4-dimethylpyridin-2(1H)-one]	2670 nM	2.1 nM	5.5 nM
Cc1c(-c2[nH]c3ccc(C4CCN(CC5CCOC5)CC4)cc3c2C(C)C)cn(C)c(=O)c1Cl (stereo not drawn) [Example 255, 3-chloro-5-(3-isopropyl-5-(1-((tetrahydrofuran-3-yl)methyl)piperidin-4-yl)-1H-indol-2-yl)-1,4-dimethylpyridin-2(1H)-one]	1820 nM	2.3 nM	4.8 nM
CC(C)CN1CCC(c2ccc3[nH]c(-c4cc(-c5cncnc5)c(=O)n(C)c4)c(C(C)C)c3c2)CC1 [Example 256, 5-(5-(1-isobutylpiperidin-4-yl)-3-isopropyl-1H-indol-2-yl)-1-methyl-3-(pyrimidin-5-yl)pyridin-2(1H)-one]	1470 nM	1.7 nM	12.4 nM
CC(C)c1c(-c2cc(-c3cncnc3)c(=O)n(C)c2)[nH]c2ccc(C3CCN(CC4CCOC4)CC3)cc12 (stereo not drawn) [Example 257, 5-(3-isopropyl-5-(1-((tetrahydrofuran-3-yl)methyl)piperidin-4-yl)-1H-indol-2-yl)-1-methyl-3-(pyrimidin-5-yl)pyridin-2(1H)-one]	1980 nM	1.1 nM	15.6 nM
CCCN1CCC(c2ccc3[nH]c(-c4cc(-c5cncnc5)c(=O)n(C)c4)c(C(C)C)c3c2F)CC1 [Example 258, 5-(4-fluoro-3-isopropyl-5-(1-propylpiperidin-4-yl)-1H-indol-2-yl)-1-methyl-3-(pyrimidin-5-yl)pyridin-2(1H)-one]	832 nM	1.1 nM	4.5 nM

— patent US11447466B2, “Substituted indole compounds useful as inhibitors of TLR7/8/9” (BRISTOL-MYERS SQUIBB COMPANY, priority 2017, dated 2022)
